# Assay results: patent publication US20070219117A1, “BIDENTATE MOTIF AND METHODS OF USE” (MEDVET SCIENCE PTY LTD, priority 2003, published 2007)
# Entries after “also recorded” stand apart in the source; their conditions may differ.
# Assays:
# Format in all cases: cell-based
# [1] = system: primary human neutrophils; experiment: Survival of primary human neutrophils, annexin V-FITC; details: for effect on neutrophil survival in response to low concentrations of GM-CSF: 15 μM inhibitor; for cell survival: neutrophils
# Protocol: Survival was determined by annexin V-FITC (Roche) staining essentially as previously described (Guthridge et al., 2000). […] After 48 hours, cells were stained with the 4H1 anti-GMRα mAb and annexin V-FITC. The proportion of GMRα-positive cells remaining viable (annexin V-FITC-negative) after culture was analysed by flow cytometry. […] In some experiments forskolin ICN Biochemicals), H89 (Seikaguku Corporation), LY294002 (Cayman Chemical Company), genestein (Sigma) or AG490 (Biomol) were used.
# TF-1 cells = experiment: TF-1 cell survival, annexin V-FITC flow cytometry; details: data not shown
# Protocol: Survival was determined by annexin V-FITC (Roche) staining essentially as previously described (Guthridge et al., 2000). Briefly, transduced fetal liver cells were plated in IMDM and either 0.1% or 10% FCS containing either no GM-CSF, […] hGM-CSF or a positive control cytokine cocktail containing 50 ng/ml IL-6 (Peprotech), 100 ng/ml mouse SCF and 10 ng/ml G-CSF (Amgen). After 48 hours, cells were stained with the 4H1 anti-GMRα mAb and annexin V-FITC. The proportion of GMRα-positive cells remaining viable (annexin V-FITC-negative) after culture was analysed by flow cytometry. The regulation of TF-1 cell survival by GM-CSF was determined as previously described (Guthridge et al., 2000; Guthridge et al., 2004). To examine the survival of primary human neutrophils in response to GM-CSF, we modified our previously described assay (Begley et al., 1986). Neutrophils purified by centrifugation through Lymphoprep (Axis-Shield) were plated at 1.5×10^5 cells/ml in IMDM/0.5% FCS containing different concentrations of GM-CSF and cell survival was examined as previously described (Guthridge et al., 2000). In some experiments forskolin ICN Biochemicals), H89 (Seikaguku Corporation), LY294002 (Cayman Chemical Company), genestein (Sigma) or AG490 (Biomol) were used.
# [2] = system: βc subunit of the GM-CSF receptor (Ser585, Tyr577); experiment: βc immunoprecipitation and phospho-specific immunoblot in TF-1 cells after GM-CSF titration
# Protocol: (§1) Cells were factor-deprived in RPMI containing 0.1% FCS for 24 h and then stimulated for 10 min with different GM-CSF concentrations before lysis as previously described (Guthridge et al., 2000). Human mononuclear cells from normal donors and from leukemic patients were separated from peripheral blood by centrifugation over ficoll. The βc subunit was immunoprecipitated using a mixture of 1C1 and 8E4 anti-βc mAb (1C1/8E4)(1 μg each/immunoprecipitation) and immunoprecipitates subjected to SDS-PAGE and immunoblot analysis. Affinity purified anti-14-3-3 pAb (EB1) were used at a dilution of 1:5000 (Guthridge et al., 2000). Anti-MAP2 mAb (MK12)(Pharmingen) was used at a dilution of 1:5000. Anti-p85 pAb antibodies (UBI) were used at a dilution of 1:1000. The 4G10 anti-phosphotyrosine mAb (UBI) was used at 1 pg/ml. The anti-active-ERK pAb (Promega) was used at 50 ng/ml, the anti-phosphorylated STAT5 mAb (Zymed) was used at 2 μg/ml, the anti-phospho-JAK2 pAb (Affinity Bioreagents) was used at 0.5 μg/ml. Affinity purified anti-βc phospho-577 pAb (Guthridge et al., 2004) were used at a dilution of 1:1000. Antibodies to phospho-Ser585 of βc (Guthridge et al., 2000) were used at a dilution of 1:5000. The phosphorylation of Akt in response to GM-CSF was examined in CTL-EN cells electroporated with the pCMV-AKT-HA plasmid (30 μg DNA/1×10^7 cells)(kindly provided by P. N. Tsichlis). 24 h after electroporation the cells were factor-deprived overnight in DMEM/0.5% FCS. Cells were then stimulated (10^7 cells/time point) with either 1 pM or 1000 pM GM-CSF and lysed in RIPA buffer (150 mM NaCl, 1.0% NP40, 0.5% Deoxycholate, 0.1% SDS, 50 mM Tris pH8.0) and subjected to SDS-PAGE and immunoblot analysis with the anti-phospho-Akt Ser473 pAb (1:1000)(Cell Signalling Technologies).
# JAK2, STAT5 and ERK = experiment: Immunoblot of TF-1 lysates for phospho-JAK2, phospho-STAT5 and active ERK; details: also βc tyrosine phosphorylation and p85 recruitment
# Protocol: as §1, with “24 h after electroporation the cells were factor-deprived overnight in DMEM/0.5% FCS. Cells were then stimulated (10^7 cells/time point) with either 1 pM or 1000 pM GM-CSF and lysed in RIPA buffer (150 mM NaCl, 1.0% NP40, 0.5% Deoxycholate, 0.1% SDS, 50 mM Tris pH8.0) and subjected to SDS-PAGE and immunoblot analysis with the anti-phospho-Akt Ser473 pAb (1:1000)(Cell Signalling Technologies).” left out
# PKA = experiment: Protein kinase A (PKA) kinase assay in TF-1 cells; details: 1 pM GM-CSF, up to 30 min, compared with 1000 pM
# Protocol: TF-1 cells were factor-deprived overnight in DMEM containing 0.5% FCS. Cells (4×10^6) were stimulated with GM-CSF or forskolin before lysis in 1 ml 20 mM Tris HCl pH 7.4, 0.5 mM EDTA, 0.5 mM EGTA, 10 mM 2-mercaptoethanol, 5% Glycerol and 2 mM NaF by 20 strokes of a dounce homogenizer on ice. The lysate was centrifuged at 170 g for 15 min and the supernatant then centrifuged at 100,000 g for 1 h at 4° C. The resulting pellet was resuspended in NP40 lysis buffer with a protease/phosphatase inhibitor cocktail (Guthridge et al., 2000; Guthridge et al., 2004). Lysate (2 μl) was then tested for PKA activity by adding 40 μM kemptide, 0.25 μCi [y-^32P] ATP, 1 μM cold ATP, in a buffer containing 10 mM MgCl2, 10 mM Tris HCl pH7.4, 1 mM β-glycerol phosphate and 1 mM DTT. Reactions (20 μl) were incubated at 30° C. for 30 min and aliquots were examined for 32P-labelled kemptide on p81 phosphocellulose filters (Whatman) and liquid scintillation counting (Guthridge et al., 2000).
# Akt = Akt Ser473 phosphorylation immunoblot in CTL-EN cells expressing the wt GM-CSF receptor; details: 1 pM GM-CSF, compared with 1000 pM GM-CSF
# Protocol: as §1, with “24 h after electroporation the cells were factor-deprived overnight in DMEM/0.5% FCS. Cells were then stimulated (10^7 cells/time point) with either 1 pM or 1000 pM GM-CSF and lysed in RIPA buffer (150 mM NaCl, 1.0% NP40, 0.5% Deoxycholate, 0.1% SDS, 50 mM Tris pH8.0) and subjected to SDS-PAGE and immunoblot analysis with the anti-phospho-Akt Ser473 pAb (1:1000)(Cell Signalling Technologies).” left out
molecule,measurement,setting,value
N#C/C(=C/c1ccc(O)c(O)c1)C(=O)NCc1ccccc1 [AG490],effect on neutrophil survival in response to low concentrations of GM-CSF,[1],Neither inhibitor was able to block; also recorded: survival was increased
O=S(=O)(NCCNC/C=C/c1ccc(Br)cc1)c1cccc2cnccc12 [H89],effect on ability of GM-CSF to promote survival in TF-1 cells,TF-1 cells,reduced
same,effect on GM-CSF-promoted survival of neutrophils,[1]; neutrophils stimulated with GM-CSF,reduced
C=C[C@@]1(C)CC(=O)[C@]2(O)[C@@]3(C)[C@@H](O)CCC(C)(C)[C@@H]3[C@H](O)[C@H](OC(C)=O)[C@@]2(C)O1 [forskolin],cell survival,[1]; forskolin in the absence of GM-CSF (from 27% without),46%
O=c1c(-c2ccc(O)cc2)coc2cc(O)cc(O)c12 [genestein],effect on neutrophil survival in response to low concentrations of GM-CSF,[1],Neither inhibitor was able to block
GM-CSF: cytokine; human GM-CSF used to stimulate cells via the GM-CSF receptor,cell survival,[1]; 0.1 pM GM-CSF,90%
same,cell survival,[1]; 1 pM GM-CSF,83%
same,GM-CSF concentration at which Tyr577 phosphorylation was detectable,"[2]; TF-1 cells, 10 min stimulation",greater than 10 pM
same,GM-CSF concentration at which phosphorylation of Ser585 decreased,"[2]; TF-1 cells, 10 min stimulation",10 pM
same,GM-CSF concentration at which phosphorylation of Ser585 increased,"[2]; TF-1 cells, 10 min stimulation",< 3 pM
same,GM-CSF concentration at which phosphorylation of Ser585 was virtually absent,"[2]; TF-1 cells, 10 min stimulation",over 100 pM
same,"GM-CSF concentration that promotes Ser585 phosphorylation, 14-3-3 binding and p85 recruitment",[2]; low concentration signal,< 3 pM
same,"GM-CSF concentration resulting in phosphorylation of JAK2, STAT5 and ERK","JAK2, STAT5 and ERK",> 10 pM
same,PKA activity,PKA,higher and more sustained
same,phosphorylation of Ser473 of Akt,Akt,the magnitude was reduced and the kinetics were delayed
